Source: patent publication US11542297B2, “Compositions and methods for treating CNS disorders” (Sage Therapeutics, Inc., priority 2014, dated 2023)

System: PTZ-treated mice
Assay: Acute PTZ method (pentylenetetrazol-induced seizure assay)
Format: in vivo
Details: Mus musculus, lowest dose significantly affecting latency to tonic seizures in PTZ-treated mice, PO, read-out: Anticonvulsive Effect Dose
Method: The anticonvulsant effect of test compounds were assessed in a pentylenetetazol-induced seizure assay in mice similar to methods described in Giardina & Gasior (Curr Protoc Pharmacol. 2009). Male CD-1 mice were housed in groups of five under controlled conditions (temperature of 22±2° C. and 12:12 light-dark cycle, lights on at 8:00 am) and water and food were available ad libitum. The mice were housed for 1 week prior to behavioral testing, at which time they weighed 25-35 g. Pentylenetetrazol (PTZ, Sigma) was dissolved in sterile 0.9% saline at a concentration of 12 mg/mL concentration for subcutaneous administration. Test compounds were formulated and administered via oral gavage or intraperitoneal injection at a predetermined time-point (typically 30 or 60 minutes) prior to PTZ injection. […]
Mice were acclimated to the test room for at least 30 min before compound administration. […] Each mouse was continuously observed for 30 min and the following behaviors were recorded by observers blinded to the treatments: 1) latency to clonic convulsions that persist for 3 sec and followed by an absence of righting reflex 2) latency to tonic convulsions, characterized by the rigid extension of all four limbs that exceeded a 90 degree angle with the body 3) latency to death 4) number of clonic and tonic convulsions. […]

**Q.** Which minimal effective dose does the source give for `Cc1nnn(CC(=O)[C@H]2CC[C@H]3[C@@H]4CC[C@@H]5C[C@](C)(O)CC[C@]5(C)[C@H]4CC[C@]23C)n1` [Compound 32] here?
**A.** Its minimal effective dose is ≤ 1 mg/kg.

**Q.** Which minimal effective dose does the source give for `C[C@@]1(O)CC[C@@]2(C)[C@H](CC[C@@H]3[C@@H]2CC[C@]2(C)[C@@H](C(=O)Cn4ccc(C#N)n4)CC[C@@H]32)C1` [Compound 24] here?
**A.** Its minimal effective dose is 1 to 5 mg/kg.
